Several values for one entry are separate records, joined by “and”; a condition that tells them apart may be missing. Equal entries are not always repeated.
O=C(C(F)(F)C(F)(F)F)C(F)(C(F)(F)F)C(F)(F)F [dodecafluoro-2-methylpentan-3-one]
Conditions | thermal conductivity
272.59 K, 5172 kPa, Liquid, transient hot wire | 0.06413 W/m/K
272.59 K, 11144 kPa, Liquid, transient hot wire | 0.06607 W/m/K
272.63 K, 49567 kPa, Liquid, transient hot wire | 0.07698 W/m/K
272.63 K, 49576 kPa, Liquid, transient hot wire | 0.07734 W/m/K
272.66 K, 412 kPa, Liquid, transient hot wire | 0.06211 W/m/K
272.66 K, 419 kPa, Liquid, transient hot wire | 0.06231 W/m/K
272.66 K, 59545 kPa, Liquid, transient hot wire | 0.08002 W/m/K
272.67 K, 59542 kPa, Liquid, transient hot wire | 0.0797 W/m/K
272.71 K, 68218 kPa, Liquid, transient hot wire | 0.08167 W/m/K
272.71 K, 68236 kPa, Liquid, transient hot wire | 0.08151 W/m/K
273.05 K, 32241 kPa, Liquid, transient hot wire | 0.07208 W/m/K
273.05 K, 32245 kPa, Liquid, transient hot wire | 0.0724 W/m/K
273.05 K, 40384 kPa, Liquid, transient hot wire | 0.07454 W/m/K
273.05 K, 40385 kPa, Liquid, transient hot wire | 0.07459 W/m/K
273.05 K, 46114 kPa, Liquid, transient hot wire | 0.07568 W/m/K
273.06 K, 24365 kPa, Liquid, transient hot wire | 0.07006 W/m/K
273.06 K, 24371 kPa, Liquid, transient hot wire | 0.0701 W/m/K
273.07 K, 5155 kPa, Liquid, transient hot wire | 0.06386 W/m/K
273.07 K, 46114 kPa, Liquid, transient hot wire | 0.07563 W/m/K
273.08 K, 5150 kPa, Liquid, transient hot wire | 0.06384 W/m/K
273.1 K, 49569 kPa, Liquid, transient hot wire | 0.07538 W/m/K
273.1 K, 49574 kPa, Liquid, transient hot wire | 0.07648 W/m/K
273.11 K, 59541 kPa, Liquid, transient hot wire | 0.07959 W/m/K
273.12 K, 59533 kPa, Liquid, transient hot wire | 0.07966 W/m/K
273.14 K, 68200 kPa, Liquid, transient hot wire | 0.0807 W/m/K
273.15 K, 404 kPa, Liquid, transient hot wire | 0.06203 W/m/K
273.15 K, 68218 kPa, Liquid, transient hot wire | 0.08063 W/m/K
273.16 K, 411 kPa, Liquid, transient hot wire | 0.06212 W/m/K
273.17 K, 17550 kPa, Liquid, transient hot wire | 0.06792 W/m/K
273.17 K, 17567 kPa, Liquid, transient hot wire | 0.06791 W/m/K
273.18 K, 11149 kPa, Liquid, transient hot wire | 0.066 W/m/K
273.18 K, 11163 kPa, Liquid, transient hot wire | 0.06608 W/m/K
273.61 K, 5151 kPa, Liquid, transient hot wire | 0.06408 W/m/K
273.61 K, 5162 kPa, Liquid, transient hot wire | 0.06401 W/m/K
273.61 K, 59517 kPa, Liquid, transient hot wire | 0.0783 W/m/K
273.62 K, 49564 kPa, Liquid, transient hot wire | 0.07642 W/m/K
273.62 K, 49566 kPa, Liquid, transient hot wire | 0.07674 W/m/K
273.62 K, 59531 kPa, Liquid, transient hot wire | 0.07779 W/m/K
273.65 K, 40387 kPa, Liquid, transient hot wire | 0.07442 W/m/K
273.65 K, 40395 kPa, Liquid, transient hot wire | 0.07429 W/m/K
273.65 K, 46116 kPa, Liquid, transient hot wire | 0.0758 W/m/K
273.65 K, 68183 kPa, Liquid, transient hot wire | 0.08044 W/m/K
273.65 K, 68193 kPa, Liquid, transient hot wire | 0.08038 W/m/K
273.66 K, 46113 kPa, Liquid, transient hot wire | 0.07572 W/m/K
273.67 K, 32245 kPa, Liquid, transient hot wire | 0.07209 W/m/K
273.67 K, 32247 kPa, Liquid, transient hot wire | 0.07216 W/m/K
273.7 K, 424 kPa, Liquid, transient hot wire | 0.0621 W/m/K
273.7 K, 24366 kPa, Liquid, transient hot wire | 0.07016 W/m/K
273.7 K, 24370 kPa, Liquid, transient hot wire | 0.07021 W/m/K
273.71 K, 432 kPa, Liquid, transient hot wire | 0.06209 W/m/K
273.81 K, 17553 kPa, Liquid, transient hot wire | 0.06799 W/m/K
273.82 K, 17545 kPa, Liquid, transient hot wire | 0.06795 W/m/K
273.85 K, 11147 kPa, Liquid, transient hot wire | 0.06585 W/m/K
273.86 K, 11155 kPa, Liquid, transient hot wire | 0.06592 W/m/K
274.19 K, 59501 kPa, Liquid, transient hot wire | 0.07896 W/m/K
274.2 K, 59504 kPa, Liquid, transient hot wire | 0.07856 W/m/K
274.21 K, 49565 kPa, Liquid, transient hot wire | 0.07644 W/m/K
274.21 K, 49570 kPa, Liquid, transient hot wire | 0.07662 W/m/K
274.22 K, 68163 kPa, Liquid, transient hot wire | 0.08055 W/m/K
274.22 K, 68173 kPa, Liquid, transient hot wire | 0.08038 W/m/K
274.29 K, 46110 kPa, Liquid, transient hot wire | 0.07571 W/m/K
274.3 K, 46107 kPa, Liquid, transient hot wire | 0.07575 W/m/K
274.31 K, 40378 kPa, Liquid, transient hot wire | 0.07418 W/m/K
274.31 K, 40391 kPa, Liquid, transient hot wire | 0.07426 W/m/K
274.35 K, 32242 kPa, Liquid, transient hot wire | 0.0723 W/m/K
274.35 K, 32249 kPa, Liquid, transient hot wire | 0.0721 W/m/K
274.39 K, 24361 kPa, Liquid, transient hot wire | 0.07 W/m/K
274.4 K, 24354 kPa, Liquid, transient hot wire | 0.06999 W/m/K
274.53 K, 17544 kPa, Liquid, transient hot wire | 0.068 W/m/K
274.54 K, 17533 kPa, Liquid, transient hot wire | 0.06799 W/m/K
274.59 K, 11155 kPa, Liquid, transient hot wire | 0.06582 W/m/K
274.6 K, 11134 kPa, Liquid, transient hot wire | 0.06585 W/m/K
274.82 K, 59491 kPa, Liquid, transient hot wire | 0.07869 W/m/K
274.82 K, 59496 kPa, Liquid, transient hot wire | 0.07855 W/m/K
274.83 K, 68150 kPa, Liquid, transient hot wire | 0.0803 W/m/K
274.83 K, 68153 kPa, Liquid, transient hot wire | 0.08033 W/m/K
274.86 K, 49566 kPa, Liquid, transient hot wire | 0.0765 W/m/K
274.86 K, 49571 kPa, Liquid, transient hot wire | 0.07653 W/m/K
300.59 K, 40 kPa, Gas, hot wire | 0.01173 W/m/K
300.6 K, 35 kPa, Gas, hot wire | 0.01177 W/m/K
300.6 K, 40 kPa, Gas, hot wire | 0.01173 W/m/K
300.61 K, 35 kPa, Gas, hot wire | 0.01163 W/m/K
300.62 K, 27 kPa, Gas, hot wire | 0.01161 W/m/K and 0.01166 W/m/K
300.8 K, 40 kPa, Gas, hot wire | 0.01173 W/m/K and 0.01174 W/m/K
